Where two headings read alike, the source gives them in different places.
System: métabolisation de la testostérone dans des épidermes reconstruits d'origine humaine
Test: Effect on testosterone metabolisation in reconstructed human epidermis (Test 1; labelled testosterone, silica-plate chromatography, radioactivity counting)
Format: cell-based
Settings: 10^-4M; for inhibition at 100 µM: relative to untreated control, 24 h, mean of 3 epidermes
Excerpt: Test 1 : mise en évidence de l'effet d'un extrait de Curcuma longa sur la métabolisation de la testostérone dans des épidermes reconstruits d'origine humaine (fournisseur : SkinEthic®).
Ces épidermes constituent un matériel biologique présentant une forte homologie avec l'épiderme humain, et permettant de tester de manière réaliste un produit destiné à être appliqué à la surface de la peau. Un extrait glycolique de feuilles de Curcuma longa a donc été testé, à différentes concentrations. Leur action a par ailleurs été comparée à celle d'un inhibiteur spécifique de la 5-alpha-réductase, le Finastéride® (molécule de référence dans ce type d'évaluation). Des épidermes reconstruits de 17 jours ont ainsi été pré-cultivés en plaque 24 puits, pendant 24 heures. Puis 100 µl de testostérone marquée ont été déposés sur la face cornée de chaque épiderme. Après 24 nouvelles heures, les milieux de culture ont été prélevés pour analyse. Il est alors regardé la métabolisation de la testostérone par chromatographie sur plaque de silice et par comptage direct de la radioactivité des différents spots, à l'aide du logiciel "Optiquant version 3 (packard)". Différents métabolites, et en particulier la dihydrotestostérone (DHT), sont identifiés à l'aide de standards. Chaque point est la moyenne de 3 mesures effectuées sur des épidermes différents.

CC(C)(C)NC(=O)[C@H]1CC[C@H]2[C@@H]3CC[C@H]4NC(=O)C=C[C@]4(C)[C@H]3CC[C@]12C [Finastéride]
inhibition at 100 µM (read-out: % inhibition métabolisation testostérone): 54% | inhibition at 100 µM (read-out: % inhibition transformation en DHT): 92% | Ratio DHT/testo. (untreated control 2,2): 0,1

From patent EP1844786A1, “Extracts of Curcuma longa and their cosmetic and dermatological uses” (EXSYMOL S.A.M., priority 2006, dated 2007)
